Measurements taken from ChEMBL document CHEMBL1201862, “PubChem BioAssay data set” (2004).
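All cell lines were grown in 96-well plates and treated with compound for 48 hours. GI50: concentration for 50% inhibition of growth.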 Active and inactive are the calls of the source. No stated cut-off is given here; in the data, active = GI50 up to about 1.1 µM and inactive = higher.

How the values were obtained:
Test in all cases: DTP human tumour cell line panel, 48 h
[1] = test system: NCI-H226
[2] = test system: UO-31
[3] = test system: MCF7
[4] = test system: 786-0
[5] = test system: IGROV-1
[6] = test system: HCT-116
[7] = test system: NCI-H460
[8] = test system: EKVX
[9] = test system: BT-549
[10] = test system: Malme-3M
[11] = test system: TK-10
[12] = test system: HL-60
[13] = test system: SNB-75
[14] = test system: OVCAR-5
[15] = test system: HCC 2998
[16] = test system: NCI/ADR-RES
[17] = test system: RXF 393
[18] = test system: UACC-257
[19] = test system: COLO 205
[20] = test system: SK-MEL-28

| Structure (SMILES) | GI50 [1] | GI50 [2] | GI50 [3] | GI50 [4] | GI50 [5] | GI50 [6] | GI50 [7] | GI50 [8] | GI50 [9] | GI50 [10] | GI50 [11] | GI50 [12] | GI50 [13] | GI50 [14] | GI50 [15] | GI50 [16] | GI50 [17] | GI50 [18] | GI50 [19] | GI50 [20] |
| --- | --- | --- | --- | --- | --- | --- | --- | --- | --- | --- | --- | --- | --- | --- | --- | --- | --- | --- | --- | --- |
| O=c1c(C(c2ccc3ccccc3c2)c2c(O)oc3ccccc3c2=O)c(O)oc2ccccc12 | 26.5 µM (inactive) | 17 µM (inactive) | 37.1 µM (inactive) | 25.6 µM (inactive) | 30.8 µM (inactive) | 35 µM (inactive) | 27.7 µM (inactive) | 31.9 µM (inactive) | 24.8 µM (inactive) | 17.7 µM (inactive) | 61.8 µM (inactive) | 34 µM (inactive) | 18.8 µM (inactive) | 28.1 µM (inactive) | 17.9 µM (inactive) | 17.9 µM (inactive) | 46.7 µM (inactive) | 51.5 µM (inactive) | 30.5 µM (inactive) | 28.6 µM (inactive) |
| COc1ccc(C(=O)c2sc(Nc3ccc(Cl)cc3)nc2N)cc1 | 29.6 µM (inactive) | 38.2 µM (inactive) | 4.45 µM (inactive) | 7.8 µM (inactive) | 5.93 µM (inactive) | 7.66 µM (inactive) | 4.31 µM (inactive) | 32.8 µM (inactive) | > 38.5 µM (inactive) | 12.3 µM (inactive) | 10.1 µM (inactive) | 0.473 µM (active) | 2.79 µM (inactive) | > 49.9 µM (inactive) | 4.91 µM (inactive) | 5.37 µM (inactive) | 14.1 µM (inactive) | 11.9 µM (inactive) | > 21.2 µM (inactive) | 29.4 µM (inactive) |
| C/C(=N\Nc1nc2ccccc2o1)c1ccncn1 | 0.228 µM (active) | 0.0479 µM (active) | 0.0556 µM (active) | 0.0869 µM (active) | 0.116 µM (active) | 0.0713 µM (active) | 0.0964 µM (active) | 0.0526 µM (active) | 5.19 µM (inactive) | 0.124 µM (active) | 1.12 µM (active) | 0.0218 µM (active) | 0.457 µM (active) | 4.36 µM (inactive) | 1.02 µM (active) | 0.19 µM (active) | 2.29 µM (inactive) | 0.396 µM (active) | 0.0427 µM (active) | 0.513 µM (active) |
| C1=N\CCNCC/N=C/c2ccccc2OCc2cccc(n2)COc2ccccc2/1 | 26.3 µM (inactive) | 9.12 µM (inactive) | 4.13 µM (inactive) | 6.7 µM (inactive) | 24.5 µM (inactive) | 3.57 µM (inactive) | 33.1 µM (inactive) | 35.5 µM (inactive) | 12 µM (inactive) | 11.8 µM (inactive) | 20.7 µM (inactive) | 2.56 µM (inactive) | 9.46 µM (inactive) | 37.5 µM (inactive) | 19.5 µM (inactive) | 6.21 µM (inactive) | 27.9 µM (inactive) | 29.2 µM (inactive) | > 56.8 µM (inactive) | 7.85 µM (inactive) |
| [Se]=P(c1ccccc1)(c1ccccc1)c1ccc(C(c2ccccc2)=P(c2ccccc2)(c2ccccc2)c2ccccc2)cc1 | 1.31 µM (inactive) | 3.27 µM (inactive) | 0.695 µM (active) | 1.2 µM (inactive) | 0.773 µM (active) | 0.6 µM (active) | 1.28 µM (inactive) | 1.89 µM (inactive) | 0.929 µM (active) | 0.499 µM (active) | 1.41 µM (inactive) | 0.0881 µM (active) | 0.431 µM (active) | 3.05 µM (inactive) | 0.979 µM (active) | 7.67 µM (inactive) | 1.57 µM (inactive) | 0.817 µM (active) | 0.308 µM (active) | 2.28 µM (inactive) |
| BrCC[N+]12CC[N+](CCBr)(CC1)C2 | > 100 µM (inactive) | > 100 µM (inactive) | > 100 µM (inactive) | > 100 µM (inactive) | > 100 µM (inactive) | > 100 µM (inactive) | > 100 µM (inactive) | > 100 µM (inactive) | > 100 µM (inactive) | > 100 µM (inactive) | > 100 µM (inactive) | > 100 µM (inactive) | > 100 µM (inactive) | > 100 µM (inactive) | > 100 µM (inactive) | > 100 µM (inactive) | > 100 µM (inactive) | > 100 µM (inactive) | > 100 µM (inactive) | > 100 µM (inactive) |
| CN(C)CCCC12CCCCC1=Nc1ccccc12 (stereo not given) | > 100 µM (inactive) | > 100 µM (inactive) | > 100 µM (inactive) | > 100 µM (inactive) | > 100 µM (inactive) | > 100 µM (inactive) | > 100 µM (inactive) | > 100 µM (inactive) | > 100 µM (inactive) | > 100 µM (inactive) | > 100 µM (inactive) | 26.1 µM (inactive) | > 100 µM (inactive) | > 100 µM (inactive) | > 100 µM (inactive) | > 100 µM (inactive) | > 100 µM (inactive) | > 100 µM (inactive) | 48.2 µM (inactive) | > 100 µM (inactive) |
| CCOC(=O)C1=CN=C2C(=O)N(c3ccccc3)N(C)C2(C)C1=N (stereo not given) | > 100 µM (inactive) | > 100 µM (inactive) | > 100 µM (inactive) | > 100 µM (inactive) | > 100 µM (inactive) | > 100 µM (inactive) | > 100 µM (inactive) | > 100 µM (inactive) | > 100 µM (inactive) | > 100 µM (inactive) | > 100 µM (inactive) | > 100 µM (inactive) | > 100 µM (inactive) | > 100 µM (inactive) | > 100 µM (inactive) | > 100 µM (inactive) | > 100 µM (inactive) | > 100 µM (inactive) | > 100 µM (inactive) | > 100 µM (inactive) |
| COc1ccc(C2=NN(C(=O)c3ccc(Cl)cc3)C(O)(c3cc(F)c(Cl)cc3Cl)C2)cc1 (stereo not given) | > 100 µM (inactive) | 16.9 µM (inactive) | 19 µM (inactive) | > 100 µM (inactive) | > 100 µM (inactive) | 23.4 µM (inactive) | 56.8 µM (inactive) | 6.04 µM (inactive) | > 100 µM (inactive) | > 100 µM (inactive) | > 100 µM (inactive) | 51.5 µM (inactive) | 15 µM (inactive) | > 100 µM (inactive) | 43.5 µM (inactive) | 48.3 µM (inactive) | > 100 µM (inactive) | 49.9 µM (inactive) | 93.5 µM (inactive) | > 100 µM (inactive) |
| O=c1c2nc(-c3ccccc3)oc2n(-c2ccccc2)c(=O)n1-c1ccccc1 | 31.8 µM (inactive) | 22 µM (inactive) | 45.7 µM (inactive) | 17.5 µM (inactive) | 26.5 µM (inactive) | 31.7 µM (inactive) | 31.8 µM (inactive) | 28.4 µM (inactive) | 28.4 µM (inactive) | > 31.6 µM (inactive) | 15 µM (inactive) | > 100 µM (inactive) | 18.1 µM (inactive) | > 46.5 µM (inactive) | > 46.5 µM (inactive) | 19.1 µM (inactive) | 18.1 µM (inactive) | 36.3 µM (inactive) | > 46.5 µM (inactive) | > 100 µM (inactive) |
